Among the data in patent publication US8263610B2, “Substituted imidazolyl-5,6-dihydrobenzo[N]isoquinoline compounds” (ArQule, Inc., priority 2008, dated 2012) are inhibition values, retold here.

SMILES strings stand for the structures.

What all share (test): MTS assay, inhibition of cell growth
Holding throughout (assay type): cell-based

The subject of one assay is DLD-1 cells. As to conditions: Homo sapiens, compound at 10 μM, 72 hours. The method, then:
(§1) MDA-MB-231, DLD-1, Kato III NCI-H1299, PACA-2 cells, were maintained at 37° C., 5% CO2 in DMEM media supplemented with 10% fetal bovine serum, penicillin/streptomycin and fungizone (Invitrogen). Cells were seeded into 96-well tissue culture plates at 3000 per well and cultured at 37° C. for 18 hours. Test compounds were dissolved and diluted to 300× in DMSO then further diluted 1:40 in DMEM before addition to cells (1:7.5 dilution). Cells were incubated with test compounds for 72 hours followed by incubation with tetrazolium compound (3-(4,5-dimethylthiazol-2-yl)-5-(3-carboxymethoxyphenyl)-2-(4-sulfophenyl)-2H-tetrazolium, inner salt; MTS) and the electron coupling reagent, phenazine methosulfate (PMS) for 4 hours. […] The ability of compounds to inhibit cell growth in this assay is correlated with the reduction of dehydrogenase enzyme activity found in metabolically active cells. The measurement of the absorbance of the formazan was assessed using an ENVISION™ (Perkin Elmer) microplate reader at 492 nm.

The next assay deals with NCI-H1299 cells. Conditions: Homo sapiens, compound at 10 μM, 72 hours. The method, then:
as §1

The test system of a further assay is PACA-2 cells. Conditions: compound at 10 μM, 72 hours. The method, then:
as §1

A further assay deals with MDA-MB-231 cells. As to conditions: Homo sapiens, compound at 10 μM, 72 hours. The method, then:
as §1

A further assay deals with Kato III cells. Conditions: Homo sapiens, compound at 10 μM, 72 hours. As to the method: as §1

As for `O=C(NCCc1ccccc1)NC1CCc2c(cnc3[nH]ncc23)C1` (stereo not drawn) [1-(2-phenylethyl)-3-(6,7,8,9-tetrahydro-3H-pyrazolo[3,4-c]isoquinolin-7-yl)urea], the inhibition at 10 µM in the assay with DLD-1 cells, with NCI-H1299 cells, with PACA-2 cells, in the assay on MDA-MB-231 cells and in the assay on Kato III cells was 75 to 100% each time.

`O=C(Nc1cccc(Cl)c1F)NC1CCc2c(cnc3[nH]ncc23)C1` (stereo not drawn) [1-(3-chloro-2-fluorophenyl)-3-(6,7,8,9-tetrahydro-3H-pyrazolo[3,4-c]isoquinolin-7-yl)urea]: the inhibition at 10 µM in the assay with DLD-1 cells, in the assay on NCI-H1299 cells, with PACA-2 cells, in the assay with MDA-MB-231 cells and with Kato III cells was 75 to 100% each time.

Consider `Cc1ccc(-c2n[nH]c3ncc4c(c23)CCN(C(=O)Nc2ccccc2)C4)o1` [1-(5-methylfuran-2-yl)-N-phenyl-3,6,8,9-tetrahydro-7H-pyrazolo[3,4-c][2,7]naphthyridine-7-carboxamide], for which the inhibition at 10 µM in the assay with DLD-1 cells, with NCI-H1299 cells, with PACA-2 cells, in the assay on MDA-MB-231 cells and in the assay on Kato III cells was 75 to 100% each time.

Regarding `O=C(C(c1ccccc1)N1CCNCC1)N1CCc2c(cnc3[nH]nc(Br)c23)C1` (stereo not drawn) [1-bromo-7-[phenyl(piperperazin-1-yl)acetyl]-6,7,8,9-tetrahydro-3H-pyrazolo[3,4-c][2,7]naphthyridine], the inhibition at 10 µM in the assay with DLD-1 cells, in the assay with NCI-H1299 cells, with PACA-2 cells, with MDA-MB-231 cells and with Kato III cells was 75 to 100% throughout.

Turning to `O=C(Nc1cccc(Oc2ccccc2)c1)N1CCc2c(cnc3[nH]nc(Br)c23)C1` [1-bromo-N-(3-phenoxyphenyl)-3,6,8,9-tetrahydro-7H-pyrazolo[3,4-c][2,7]naphthyridine-7-carboxamide], the inhibition – broadly, the change of the read-out against control, counted positive when it falls – at 10 µM is 75 to 100% in the assay on DLD-1 cells; 50 to 74% with NCI-H1299 cells; 50 to 74% in the assay on PACA-2 cells; 25 to 49% in the assay with MDA-MB-231 cells; 75 to 100% in the assay with Kato III cells.

For the molecule `Cc1ccc(C)c(S(=O)(=O)NC2CCc3c(cnc4[nH]ncc34)C2)c1` (stereo not drawn) [2,5-dimethyl-N-(6,7,8,9-tetrahydro-3H-pyrazolo[3,4-c]isoquinolin-7-yl)benzenesulfonamide], the inhibition at 10 µM with DLD-1 cells, in the assay with NCI-H1299 cells, with PACA-2 cells, in the assay on MDA-MB-231 cells and in the assay with Kato III cells was 75 to 100% throughout.

On to `COc1ccc(Cn2ncc3c4c(cnc32)CCc2[nH]c(=O)ccc2-4)cc1` [3-(4-methoxybenzyl)-3,6,7,8-tetrahydro-9H-pyrazolo[4,3-a][3,7]phenanthrolin-9-one], for which the inhibition at 10 µM with DLD-1 cells, in the assay on NCI-H1299 cells, with PACA-2 cells, in the assay with MDA-MB-231 cells and in the assay with Kato III cells was 75 to 100% in each case.

In the case of `CNc1ncc2c(n1)CCc1cnc3c(cnn3Cc3ccc(OC)cc3)c1-2` [3-(4-methoxybenzyl)-N-methyl-6,7-dihydro-3H-pyrazolo[4′,3′:5,6]pyrido[4,3-f]quinazolin-9-amine], the inhibition at 10 µM in the assay on DLD-1 cells was 75 to 100%; in the assay on NCI-H1299 cells it was less than 24%; in the assay on PACA-2 cells, 75 to 100%; in the assay on MDA-MB-231 cells, 75 to 100%; in the assay on Kato III cells, 75 to 100%.

`Nc1nc(N2CCc3c(cnc4[nH]ncc34)C2)c2cn[nH]c2n1` [4-(3,6,8,9-tetrahydro-7H-pyrazolo[3,4-c][2,7]naphthyridin-7-yl)-1H-pyrazolo[3,4-d]pyrimidin-6-amine]: the inhibition at 10 µM in the assay with DLD-1 cells lay within 75 to 100%; in the assay with NCI-H1299 cells, 25 to 49%; in the assay with PACA-2 cells, 75 to 100%; with MDA-MB-231 cells, 50 to 74%; in the assay with Kato III cells, 75 to 100%.

Turning to `c1nc2[nH]ncc2c2c1CNCC2` [6,7,8,9-tetrahydro-3H-pyrazolo[3,4-c][2,7]naphthyridine], the inhibition at 10 µM in the assay on DLD-1 cells lay in the range of 75 to 100%; in the assay with NCI-H1299 cells it was 25 to 49%; in the assay with PACA-2 cells, 75 to 100%; in the assay on MDA-MB-231 cells it was 75 to 100%; in the assay with Kato III cells, 25 to 49%.

Consider `c1cc2c(s1)CCc1cnc3[nH]ncc3c1-2` [6,7-dihydro-3H-pyrazolo[3,4-c]thieno[3,2-f]isoquinoline], for which the inhibition at 10 µM in the assay with DLD-1 cells, with NCI-H1299 cells, with PACA-2 cells, in the assay with MDA-MB-231 cells and in the assay on Kato III cells was 75 to 100% in each case.

For the molecule `Nc1nc(N)nc(N2CCc3c(cnc4[nH]ncc34)C2)n1` [6-(3,6,8,9-tetrahydro-7H-pyrazolo[3,4-c][2,7]naphthyridin-7-yl)-1,3,5-triazine-2,4-diamine], the inhibition at 10 µM in the assay with DLD-1 cells, with NCI-H1299 cells, in the assay on PACA-2 cells, in the assay with MDA-MB-231 cells and in the assay with Kato III cells was 75 to 100% each time.

With `Nc1nc(N2CCc3c(cnc4[nH]ncc34)C2)c2nc[nH]c2n1` [6-(3,6,8,9-tetrahydro-7H-pyrazolo[3,4-c][2,7]naphthyridin-7-yl)-9H-purin-2-amine], the inhibition at 10 µM in the assay on DLD-1 cells, with NCI-H1299 cells, in the assay on PACA-2 cells, in the assay with MDA-MB-231 cells and in the assay with Kato III cells was 75 to 100% in each case.

Regarding `Cc1cc(NC2CCc3c(cnc4[nH]ncc34)C2)nc(N)n1` (stereo not drawn) [6-methyl-N~4~-(6,7,8,9-tetrahydro-3H-pyrazolo[3,4-c]isoquinolin-7-yl)pyrimidine-2,4-diamine], the inhibition at 10 µM in the assay on DLD-1 cells fell in the range of 75 to 100%; in the assay on NCI-H1299 cells it was 25 to 49%; in the assay with PACA-2 cells it was 75 to 100%; in the assay on MDA-MB-231 cells it was 75 to 100%; in the assay with Kato III cells, 75 to 100%.

`Clc1ccccc1C1Cc2cnc3[nH]nc(-c4cnn(C5CCNCC5)c4)c3c2-c2ccccc21` (stereo not drawn) [7-(2-chlorophenyl)-1-(1-piperidin-4-yl-1H-pyrazol-4-yl)-6,7-dihydro-3H-benzo[f]pyrazolo[3,4-c]isoquinoline]: the inhibition at 10 µM in the assay with DLD-1 cells, in the assay on NCI-H1299 cells, in the assay with PACA-2 cells, in the assay on MDA-MB-231 cells and in the assay with Kato III cells was 75 to 100% throughout.

Take `O=S(=O)(c1cccs1)N1CCc2c(cnc3[nH]ncc23)C1` [7-(2-thienylsulfonyl)-6,7,8,9-tetrahydro-3H-pyrazolo[3,4-c][2,7]naphthyridine]: the inhibition at 10 µM in the assay on DLD-1 cells, in the assay with NCI-H1299 cells, with PACA-2 cells, in the assay with MDA-MB-231 cells and with Kato III cells was 75 to 100% each time.

Consider `CS(=O)(=O)N1CCc2c(cnc3[nH]ncc23)C1` [7-(methylsulfonyl)-6,7,8,9-tetrahydro-3H-pyrazolo[3,4-c][2,7]naphthyridine], for which the inhibition at 10 µM with DLD-1 cells, in the assay on NCI-H1299 cells, in the assay on PACA-2 cells, in the assay on MDA-MB-231 cells and with Kato III cells was 75 to 100% throughout.

With `COc1ccc(S(=O)(=O)N2CCc3c(cnc4[nH]ncc34)C2)cc1OC` [7-[(3,4-dimethoxyphenyl)sulfonyl]-6,7,8,9-tetrahydro-3H-pyrazolo[3,4-c][2,7]napthyridine], the inhibition at 10 µM with DLD-1 cells, in the assay on NCI-H1299 cells, with PACA-2 cells, with MDA-MB-231 cells and with Kato III cells was 75 to 100% in each case.

In the case of `COc1ccc(CN2CCN(C(=O)N3CCc4c(cnc5[nH]ncc45)C3)CC2)cc1` [7-{[4-(4-methoxybenzyl)piperazin-1-yl]carbonyl}-6,7,8,9-tetrahydro-3H-pyrazolo[3,4-c][2,7]naphthyridine], the inhibition at 10 µM is 75 to 100% in the assay on DLD-1 cells; less than 24% in the assay on NCI-H1299 cells; 75 to 100% with PACA-2 cells; 75 to 100% in the assay with MDA-MB-231 cells; 75 to 100% with Kato III cells.

Consider `Clc1ccccc1CN1CCN(c2ncc3c(n2)CCc2cnc4[nH]ncc4c2-3)CC1` [9-[4-(2-chlorobenzyl)piperazin-1-yl]-6,7-dihydro-3H-pyrazolo[4′3′:5,6]pyrido[4,3-f]quinazoline], for which the inhibition at 10 µM in the assay on DLD-1 cells, in the assay with NCI-H1299 cells, with PACA-2 cells, in the assay on MDA-MB-231 cells and in the assay with Kato III cells was 75 to 100% throughout.

For `CN(C)CCNC(C(=O)N1CCc2c(cnc3[nH]nc(-c4ccccc4)c23)C1)c1ccccc1` (stereo not drawn) [N,N-dimethyl-N′-[2-oxo-1-phenyl-2-(1-phenyl-3,6,8,9-tetrahydro-7H-pyrazolo[3,4-c][2,7]napthyridin-7-yl)ethyl]ethane-1,2-diamine], the inhibition at 10 µM with DLD-1 cells, with NCI-H1299 cells, in the assay with PACA-2 cells, in the assay with MDA-MB-231 cells and in the assay with Kato III cells was 75 to 100% in each case.
